Data reported in PubChem BioAssay AID328 (DTP/NCI, 2004).
Where “and” joins values, the source holds several entries; their conditions need not be identical. Identical values can stand only once. Inconclusive results and toxic doses are left out.

System: BDF1 mice, P388 leukemia ip, median survival T/C
Assay: NCI In Vivo Anticancer Drug Screen. Data for tumor model P388 Leukemia (intraperitoneal) in B6D2F1 (BDF1) mice
Details: endpoint: median survival time, higher = longer survival
Procedure, shortened: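 Transplantable tumour in mice; compound vs vehicle dosing; survival scored; ratio of treated to control reported.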

[1] = dose: 50.0 mg/kg/injection, schedule: Q01DX009 (ip), vehicle: saline with Tween-80
[2] = dose: 100.0 mg/kg/injection, schedule: Q01DX009 (ip), vehicle: saline with Tween-80
[3] = dose: 200.0 mg/kg/injection, schedule: Q01DX009 (ip), vehicle: saline with Tween-80
[4] = dose: 100.0 mg/kg/injection, schedule: Q01DX009 (ip), vehicle: saline
[5] = dose: 50.0 mg/kg/injection, schedule: Q01DX009 (ip), vehicle: saline
[6] = dose: 100.0 mg/kg/injection, schedule: Q04DX003 (ip), vehicle: saline
[7] = dose: 200.0 mg/kg/injection, schedule: Q04DX003 (ip), vehicle: saline
[8] = dose: 100.0 mg/kg/injection, schedule: Q04DX003 (ip), vehicle: saline with Tween-80
[9] = dose: 200.0 mg/kg/injection, schedule: Q04DX003 (ip), vehicle: saline with Tween-80

COc1cc2c(cc1OC)/C(=N\O)CCCC2
T/C [1]: 119 % of control | T/C [2]: 114 % of control | T/C (dose: 100.0 mg/kg/injection, schedule: Q04DX003 (ip), vehicle: Klucel (hydroxypropylcellulose) (HPC)): 100 % of control | T/C [3]: 90 % of control | T/C (dose: 200.0 mg/kg/injection, schedule: Q04DX003 (ip), vehicle: Klucel (hydroxypropylcellulose) (HPC)): 100 % of control | T/C (dose: 400.0 mg/kg/injection, schedule: Q04DX003 (ip), vehicle: Klucel (hydroxypropylcellulose) (HPC)): 100 % of control

O=[Se](=O)(c1ccccc1)c1ccccc1
T/C (dose: 100.0 mg/kg/injection, schedule: Q04DX002 (ip), vehicle: saline with Tween-80): 97 % of control | T/C (dose: 200.0 mg/kg/injection, schedule: Q04DX002 (ip), vehicle: saline with Tween-80): 103 % of control | T/C (dose: 400.0 mg/kg/injection, schedule: Q04DX002 (ip), vehicle: saline with Tween-80): 94 % of control

CCN(C(=S)Nc1cccc(OC)c1)c1ccccc1
T/C [1]: 101 % of control | T/C [2]: 99 % of control | T/C [3]: 101 % of control

C[N+]12CCN(CC1)CC2
T/C [4]: 91 % of control | T/C (dose: 200.0 mg/kg/injection, schedule: Q01DX009 (ip), vehicle: saline): 91 % of control | T/C (dose: 400.0 mg/kg/injection, schedule: Q01DX009 (ip), vehicle: saline): 100 % of control

NC(=S)N/N=C/c1cc(-c2cccc(N)c2)ccn1
T/C (dose: 12.5 mg/kg/injection, schedule: Q01DX009 (ip), vehicle: saline with Tween-80): 154 % of control | T/C (dose: 25.0 mg/kg/injection, schedule: Q01DX009 (ip), vehicle: saline with Tween-80): 162 % of control | T/C [1]: 211 % of control | T/C (dose: 75.0 mg/kg/injection, schedule: Q01DX009 (ip), vehicle: saline with Tween-80): 178 % of control

COc1ccc(NC(=O)N(CCCl)N=O)cc1OC
T/C (dose: 0.29 mg/kg/injection, schedule: Q04DX003 (ip), vehicle: saline with Tween-80): 107 % of control | T/C (dose: 0.44 mg/kg/injection, schedule: Q04DX003 (ip), vehicle: saline with Tween-80): 110 % of control | T/C (dose: 0.66 mg/kg/injection, schedule: Q04DX003 (ip), vehicle: saline with Tween-80): 122 % of control | T/C (dose: 0.79 mg/kg/injection, schedule: Q01DX009 (ip), vehicle: saline with Tween-80): 174 % of control | T/C (dose: 1.19 mg/kg/injection, schedule: Q01DX009 (ip), vehicle: saline with Tween-80): 185 % of control | T/C (dose: 1.78 mg/kg/injection, schedule: Q01DX009 (ip), vehicle: saline with Tween-80): 186 % of control | T/C (dose: 2.2 mg/kg/injection, schedule: Q04DX003 (ip), vehicle: saline with Tween-80): 172 % of control | T/C (dose: 2.66 mg/kg/injection, schedule: Q01DX009 (ip), vehicle: saline with Tween-80): 161 % of control and 194 % of control | T/C (dose: 3.3 mg/kg/injection, schedule: Q04DX003 (ip), vehicle: saline with Tween-80): 190 % of control | T/C (dose: 4.0 mg/kg/injection, schedule: Q01DX009 (ip), vehicle: saline with Tween-80): 169 % of control | T/C (dose: 5.0 mg/kg/injection, schedule: Q04DX003 (ip), vehicle: saline with Tween-80): 186 % of control | T/C (dose: 5.5 mg/kg/injection, schedule: Q04DX003 (ip), vehicle: saline with Tween-80): 218 % of control | T/C (dose: 6.0 mg/kg/injection, schedule: Q01DX009 (ip), vehicle: saline with Tween-80): 169 % of control | T/C (dose: 7.5 mg/kg/injection, schedule: Q04DX003 (ip), vehicle: saline with Tween-80): 209 % of control | T/C (dose: 8.3 mg/kg/injection, schedule: Q04DX003 (ip), vehicle: saline with Tween-80): 209 % of control | T/C (dose: 9.0 mg/kg/injection, schedule: Q01DX009 (ip), vehicle: saline with Tween-80): 260 % of control | T/C (dose: 12.5 mg/kg/injection, schedule: Q04DX003 (ip), vehicle: saline with Tween-80): 236 % of control | T/C (dose: 18.7 mg/kg/injection, schedule: Q04DX003 (ip), vehicle: saline with Tween-80): 281 % of control

COc1ccc(CC2Cc3cc(OC)c(OC)cc3C=N2)cc1OC (stereo not given)
T/C [5]: 96 % of control | T/C [4]: 107 % of control | T/C [6]: 103 % of control | T/C [7]: 111 % of control

CCNC(=S)N/N=C/c1ccc[nH]1
T/C (dose: 15.0 mg/kg/injection, schedule: Q01DX009 (ip), vehicle: saline with Tween-80): 104 % of control | T/C (dose: 30.0 mg/kg/injection, schedule: Q01DX009 (ip), vehicle: saline with Tween-80): 88 % of control | T/C (dose: 60.0 mg/kg/injection, schedule: Q01DX009 (ip), vehicle: saline with Tween-80): 101 % of control

CC(C)(C)OC(=O)NC(CCCCNC(=O)OCc1ccccc1)C(=O)NC(CCCCNC(=O)OCc1ccccc1)C(=O)NC(CCCCNC(=O)OCc1ccccc1)C(=O)OCc1ccccc1 (stereo not given)
T/C (dose: 50.0 mg/kg/injection, schedule: Q01DX005 (ip), vehicle: saline with Tween-80): 86 % of control | T/C (dose: 200.0 mg/kg/injection, schedule: Q01DX005 (ip), vehicle: saline with Tween-80): 90 % of control

C1=CCC(COC(c2ccccc2)(c2ccccc2)c2ccccc2)C(COC(c2ccccc2)(c2ccccc2)c2ccccc2)C1 (stereo not given)
T/C (dose: 100.0 mg/kg/injection, schedule: Q01DX001 (ip), vehicle: saline with Tween-80): 93 % of control | T/C (dose: 200.0 mg/kg/injection, schedule: Q01DX001 (ip), vehicle: saline with Tween-80): 96 % of control | T/C (dose: 400.0 mg/kg/injection, schedule: Q01DX001 (ip), vehicle: saline with Tween-80): 88 % of control

C/C(Br)=C(/Br)C(=O)O
T/C [1]: 94 % of control | T/C [2]: 97 % of control | T/C [3]: 87 % of control

CCC[N+](C)(C)CCCCOCCCC[N+](C)(C)CCC
T/C (dose: 3.0 mg/kg/injection, schedule: Q01DX009 (ip), vehicle: saline): 88 % of control | T/C (dose: 3.0 mg/kg/injection, schedule: Q04DX003 (ip), vehicle: saline): 100 % of control | T/C (dose: 6.0 mg/kg/injection, schedule: Q01DX009 (ip), vehicle: saline): 92 % of control | T/C (dose: 6.0 mg/kg/injection, schedule: Q04DX003 (ip), vehicle: saline): 116 % of control | T/C (dose: 6.25 mg/kg/injection, schedule: Q04DX003 (ip), vehicle: saline): 113 % of control | T/C (dose: 12.0 mg/kg/injection, schedule: Q01DX009 (ip), vehicle: saline): 96 % of control | T/C (dose: 12.0 mg/kg/injection, schedule: Q04DX003 (ip), vehicle: saline): 100 % of control | T/C (dose: 12.5 mg/kg/injection, schedule: Q04DX003 (ip), vehicle: saline): 109 % of control

Cc1cc(C)c(C#N)c([S][Sn]([Cl])([Cl])[S]c2nc(C)cc(C)c2C#N)n1
T/C [8]: 97 % of control | T/C [9]: 98 % of control

O=C(O)C1CCC[N-]C1.O=C(O)C1CCC[N-]C1.O=C(O)C1CCC[N-]C1.O=C(O)C1CCC[N-]C1.[Cl][Rh][Cl] (stereo not given)
T/C (dose: 4.0 mg/kg/injection, schedule: Q01DX009 (ip), vehicle: saline): 100 % of control | T/C (dose: 8.0 mg/kg/injection, schedule: Q01DX009 (ip), vehicle: saline): 99 % of control | T/C (dose: 10.0 mg/kg/injection, schedule: Q01DX009 (ip), vehicle: saline): 118 % of control | T/C (dose: 16.0 mg/kg/injection, schedule: Q01DX009 (ip), vehicle: saline): 93 % of control | T/C (dose: 20.0 mg/kg/injection, schedule: Q01DX009 (ip), vehicle: saline): 98 % of control | T/C (dose: 40.0 mg/kg/injection, schedule: Q01DX009 (ip), vehicle: saline): 98 % of control | T/C [5]: 100 % of control | T/C [4]: 86 % of control | T/C [6]: 100 % of control | T/C [7]: 108 % of control | T/C (dose: 400.0 mg/kg/injection, schedule: Q04DX003 (ip), vehicle: saline): 102 % of control

Cc1cccc2c(N3CCOCC3)c3c(nc12)CCCCC3
T/C [8]: 105 % of control | T/C [9]: 95 % of control | T/C (dose: 400.0 mg/kg/injection, schedule: Q04DX003 (ip), vehicle: saline with Tween-80): 100 % of control

CCOC(=O)C[n+]1ccccc1
T/C (dose: 25.0 mg/kg/injection, schedule: Q01DX009 (ip), vehicle: saline): 100 % of control | T/C [5]: 118 % of control | T/C (dose: 50.0 mg/kg/injection, schedule: Q04DX003 (ip), vehicle: saline with Tween-80): 90 % of control | T/C (dose: 75.0 mg/kg/injection, schedule: Q04DX003 (ip), vehicle: saline): 104 % of control | T/C [4]: 90 % of control | T/C [8]: 90 % of control | T/C (dose: 150.0 mg/kg/injection, schedule: Q04DX003 (ip), vehicle: saline): 109 % of control

O=c1cc[nH]c2cc(C(F)(F)F)ccc12
T/C (dose: 100.0 mg/kg/injection, schedule: Q04DX003 (ip), vehicle: saline sonified): 100 % of control | T/C (dose: 200.0 mg/kg/injection, schedule: Q04DX003 (ip), vehicle: saline sonified): 95 % of control
